From ChEMBL document CHEMBL1131793, “Discovery of FR166124, a novel water-soluble pyrazolo-[1,5-a]pyridine adenosine A1 receptor antagonist” (Bioorg Med Chem Lett, 1999)
pIC50: −log10 of the molar value.

Assays:
[1] = Water solubility was measured; type: ADME
Adenosine receptor A1 = molecular target: T1, Adenosine receptor A1 (Rattus norvegicus, UniProt P25099); experiment: Inhibitory activity against Adenosine A1 Receptor using [3H]CHA in rat cortical membranes; type: cell membranes
T1 sequence (P25099 whole entry): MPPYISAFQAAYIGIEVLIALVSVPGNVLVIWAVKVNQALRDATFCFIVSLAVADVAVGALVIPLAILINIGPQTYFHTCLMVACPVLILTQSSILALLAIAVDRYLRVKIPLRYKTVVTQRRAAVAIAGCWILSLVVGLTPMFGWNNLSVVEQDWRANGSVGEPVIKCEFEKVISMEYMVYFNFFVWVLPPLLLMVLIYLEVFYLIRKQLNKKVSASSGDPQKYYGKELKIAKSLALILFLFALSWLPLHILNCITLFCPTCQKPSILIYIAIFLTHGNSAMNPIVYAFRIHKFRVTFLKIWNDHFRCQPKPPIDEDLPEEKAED

Adenosine receptor A2a = Adenosine receptor A2a (Rattus norvegicus, UniProt P30543); experiment: Inhibitory activity against Adenosine A2a receptor using [3H]NECA in rat striatal membranes; type: cell membranes, Striatum, Membrane
Chain of Adenosine receptor A2a (P30543 whole entry): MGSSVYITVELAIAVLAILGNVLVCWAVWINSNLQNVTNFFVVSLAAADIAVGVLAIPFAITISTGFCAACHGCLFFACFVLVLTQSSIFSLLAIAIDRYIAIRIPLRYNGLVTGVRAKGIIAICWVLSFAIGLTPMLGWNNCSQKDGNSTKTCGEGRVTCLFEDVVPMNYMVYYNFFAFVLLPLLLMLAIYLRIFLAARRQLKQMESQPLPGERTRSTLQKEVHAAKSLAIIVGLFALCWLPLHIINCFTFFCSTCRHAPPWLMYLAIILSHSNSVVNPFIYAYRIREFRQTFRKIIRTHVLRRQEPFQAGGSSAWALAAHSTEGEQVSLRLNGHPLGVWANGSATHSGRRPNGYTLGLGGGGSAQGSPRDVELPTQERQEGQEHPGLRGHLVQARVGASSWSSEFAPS

Row | solubility [1] | pIC50 (Adenosine receptor A1) | pIC50 (Adenosine receptor A2a) | Compound
1 | 10000 µg/mL | – | – | O=C([O-])CCCn1nc(-c2c(-c3ccccc3)nn3ccccc23)ccc1=O.[Na+]
2 | > 200000 µg/mL | – | – | O=C([O-])CC1=C(n2nc(-c3c(-c4ccccc4)nn4ccccc34)ccc2=O)CCCC1.[Na+]
3 | – | 7.47 | 5.26 | O=C(O)C[C@H]1CCCC[C@H]1n1nc(-c2c(-c3ccccc3)nn3ccccc23)ccc1=O
4 | – | 7.77 | 4.96 | O=C(/C=C/c1c(-c2ccccc2)nn2ccccc12)N1CCCC[C@@H]1CCO [FK453]
5 | – | 7.80 | 5.26 | O=C(O)CC1=C(n2nc(-c3c(-c4ccccc4)nn4ccccc34)ccc2=O)CCCCC1
6 | – | 7.82 | 5.21 | O=C(O)CC1=C(n2nc(-c3c(-c4ccccc4)nn4ccccc34)ccc2=O)CCCC1
7 | – | 7.96 | 6.08 | O=C(O)CC1=C(n2nc(-c3c(-c4ccccc4)nn4ccccc34)ccc2=O)CCC1
8 | – | 6.92 | 5.23 | O=C(O)CCCn1nc(-c2c(-c3ccccc3)nn3ccccc23)ccc1=O
9 | – | 8.44 | 7.00 | O=C(O)C[C@@H]1CCCC[C@H]1n1nc(-c2c(-c3ccccc3)nn3ccccc23)ccc1=O
